In patent publication US20170239351A1, “Therapeutic Combinations of a BTK Inhibitor, a PI3K Inhibitor, a JAK-2 Inhibitor, a PD-1 Inhibitor, and/or a PD-L1 Inhibitor” (Acerta Pharma B.V., priority 2014, published 2017):

Assays:
CD8^+ T cells = test: Cytotoxic T cell (CTL) assay; type: cell-based; details: 500 nM
Description: Without being bound by any theory, CD8^+ T cells have two primary effector functions: (1) produce large amounts of IFN-γ (which activates macrophages), and (2) cytolytic activity. […] The targets were B lymphoblasts from lipopolysaccharide (LPS) treated cultures. The assay was performed by incubating different ratios of effectors:targets for 4 hours.

BTK = biological target: T1, BTK (Mus musculus, UniProt P35991); test: Molecular probe assay of irreversible BTK occupancy in MDSCs; type: in vivo, tumor bearing PDA mice; details: 15 mg/kg BID; Day 8 at 4 hours post dose (N=5)
T1 construct: MDSCs were purified from tumor bearing PDA mice; endogenous in cells; host or cells: granulocytic and monocytic MDSCs purified from tumour-bearing PDA mice
T1 sequence (P35991 whole entry): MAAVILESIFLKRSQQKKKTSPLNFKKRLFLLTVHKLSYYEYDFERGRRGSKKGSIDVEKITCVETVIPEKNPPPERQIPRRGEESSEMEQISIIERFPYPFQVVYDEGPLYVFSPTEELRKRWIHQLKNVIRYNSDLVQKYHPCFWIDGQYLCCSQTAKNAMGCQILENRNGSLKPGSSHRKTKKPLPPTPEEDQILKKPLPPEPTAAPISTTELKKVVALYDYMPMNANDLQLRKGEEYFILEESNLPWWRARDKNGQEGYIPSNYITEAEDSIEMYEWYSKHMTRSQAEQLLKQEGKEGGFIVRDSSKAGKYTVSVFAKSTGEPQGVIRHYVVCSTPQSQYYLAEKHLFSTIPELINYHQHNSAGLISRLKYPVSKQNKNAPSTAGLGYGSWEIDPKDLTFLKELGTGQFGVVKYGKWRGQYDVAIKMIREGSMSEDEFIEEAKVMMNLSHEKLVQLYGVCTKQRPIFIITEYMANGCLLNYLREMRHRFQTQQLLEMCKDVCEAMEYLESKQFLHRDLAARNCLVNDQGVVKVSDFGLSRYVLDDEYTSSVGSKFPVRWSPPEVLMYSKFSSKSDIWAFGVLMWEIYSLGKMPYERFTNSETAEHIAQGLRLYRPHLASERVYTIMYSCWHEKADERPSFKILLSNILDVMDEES
Source text: A molecular probe assay was used to calculate the percent irreversible occupancy of total BTK.

CD4^+ T cells = test: Th17 and Treg development from CD4+ T cells; type: cell-based
Description: Enriched CD4^+ T cells are plated on 24-well culture dishes that have been precoated 2 hr with 250 μL anti-TCRβ (0.5 μg/mL) plus anti-CD28 (5 μg/mL) at 37° C. in PBS. The cells are then supplemented with media containing BTK inhibitors along with the skewing cytokines as indicated in the following. The Th17 and Treg cultures are grown for 4 days before analysis. The cells are maintained for an additional 3 days with skewing cytokines (Th17; 20 ng/mL IL-6, 0.5 ng/mL TGF-β, 5 μg/mL IL-4, 5 μg/mL IFN-γ and Treg; 0.5 ng/mL TGF-β, 5 μg/mL IL-4, 5 μg/mL IFN-γ) and are supplemented with IL2 as a growth factor.

CD8^+ T cell function = test: IFN-γ level measurements for CD8+ T cell function; type: cell-based; details: relative to vehicle
[1] = Standard drug metabolism and pharmacokinetics (DMPK) assays; type: in vitro ADME
KPC pancreatic cancer = KPC pancreatic cancer model; details: in vivo
[2] = Glutathione binding and depletion in vitro; type: in vitro ADME
ID8 ovarian cancer = test: ID8 syngeneic orthotropic ovarian cancer model; type: in vivo, mice
[3] = tested on: human platelet-mediated thrombosis; design: species or system VWF HA1 mice (human platelets); details: in vivo
Description: […]. Injury to the vessel wall of arterioles ([…] diameter) was performed using a pulsed nitrogen dye laser (440 nm, Photonic Instruments) applied through a 20× water-immersion Olympus objective (LUMPlanF1, 0.5 numerical aperature (NA)) of a Zeiss Axiotech vario microscope. Human platelet and wall interactions were visualized by fluorescence microscopy using a system equipped with a Yokogawa CSU-22 spinning disk confocal scanner, iXON EM camera, and 488 nm and 561 nm laser lines to detect BCECF-labeled and rhodamine-labeled platelets, respectively (Revolution XD, Andor Technology). The extent of thrombus formation was assessed for 2 minutes after injury and the area (μm^2) of coverage determined (Image IQ, Andor Technology).
. The BTK inhibitor-treated human platelets were fluorescently labeled and infused continuously through a catheter inserted into the femoral artery. Their behavior in response to laser-induced vascular injury was monitored in real time using two-channel confocal intravital microscopy (Furie and Furie, J. Clin. Invest. 2005, 115(12), 2255-62). Upon induction of arteriole injury untreated platelets rapidly formed thrombi with an average thrombus size of […] (mean±s.e.m.), as shown in FIG. 124 and FIG. 125. […]. […]. […]

CC#CC(=O)N1CCC[C@H]1c1nc(-c2ccc(C(=O)Nc3ccccn3)cc2)c2c(N)nccn12 [Formula (XVIII), (S)-4-(8-amino-3-(1-(but-2-ynoyl)pyrrolidin-2-yl)imidazo[1,5-a]pyrazin-1-yl)-N-(pyridin-2-yl)benzamide]
CD8^+ T cell function as % cytotoxicity (CD8^+ T cells): no effect on CD8^+ T cell function | BTK occupancy in granulocytic and monocytic MDSC compartment (BTK): Complete BTK occupancy | effect on Th17 and Treg development (CD4^+ T cells): no adverse effects on Th17 and Treg development | CD8+ T cell function as measured by IFN-γ level (CD8^+ T cell function): no effect on CD8^+ T cell function | solubility, plasma protein binding and oral bioavailability versus ibrutinib [1]: greater solubility, less plasma protein binding, and better oral bioavailability than ibrutinib | immunosuppressive MDSCs (Gr1+Ly6CHi) in tumor tissues (KPC pancreatic cancer): significantly reduced | immunosuppressive TAMs (CD11b+Ly6ClowF4/80+Csf1r+) in tumor tissues (KPC pancreatic cancer): significantly reduced | immunosuppressive Tregs (CD4+CD25+FoxP3+) in tumor tissues (KPC pancreatic cancer): significantly reduced | glutathione binding and depletion [2]: binds to glutathione but does not deplete glutathione | CD8+ T cells (ID8 ovarian cancer; mouse, in vivo): increase in CD8^+ T cells | immunosuppressive tumor associated Tregs (ID8 ovarian cancer; mouse, in vivo): significant reduction in immunosuppressive tumor associated Tregs | ID8 ovarian cancer growth (ID8 ovarian cancer; syngeneic murine model, versus vehicle): impairs ID8 ovarian cancer growth | B regulatory cells (Bregs) (ID8 ovarian cancer; tumor-bearing mice): significant reduction in B regulatory cells (Bregs) | total B cells (ID8 ovarian cancer; tumor-bearing mice): significant reduction in total B cells | immunosuppressive tumor associated lymphocytes (ID8 ovarian cancer; tumor-bearing mice, versus vehicle): significant reduction in immunosuppressive tumor associated lymphocytes | effect on thrombus formation [3]: does not interfere with thrombus formation
